# From article PMC6154583, “Optimized 4,5-Diarylimidazoles as Potent/Selective Inhibitors of Protein Kinase CK1δ and Their Structural Relation to p38α MAPK” (Molecules : A Journal of Synthetic Chemistry and Natural …, 2017)
# Assays:
# CDK6/CycD1 = CDK6/CycD1 (Homo sapiens, UniProt Q00534); test: ProQinase 33PanQinase selectivity profiling; assay type: biochemical; details: 100 nM, relative to control, read-out: Residual activity (%)
# B-RAF V600E = B-RAF V600E (Homo sapiens, UniProt P15056, V600E); test: ProQinase 33PanQinase selectivity profiling; assay type: biochemical; details: 100 nM, relative to control, read-out: Residual activity (%)
# Chain of B-RAF V600E (P15056 whole entry V600E, the tested form may be a part): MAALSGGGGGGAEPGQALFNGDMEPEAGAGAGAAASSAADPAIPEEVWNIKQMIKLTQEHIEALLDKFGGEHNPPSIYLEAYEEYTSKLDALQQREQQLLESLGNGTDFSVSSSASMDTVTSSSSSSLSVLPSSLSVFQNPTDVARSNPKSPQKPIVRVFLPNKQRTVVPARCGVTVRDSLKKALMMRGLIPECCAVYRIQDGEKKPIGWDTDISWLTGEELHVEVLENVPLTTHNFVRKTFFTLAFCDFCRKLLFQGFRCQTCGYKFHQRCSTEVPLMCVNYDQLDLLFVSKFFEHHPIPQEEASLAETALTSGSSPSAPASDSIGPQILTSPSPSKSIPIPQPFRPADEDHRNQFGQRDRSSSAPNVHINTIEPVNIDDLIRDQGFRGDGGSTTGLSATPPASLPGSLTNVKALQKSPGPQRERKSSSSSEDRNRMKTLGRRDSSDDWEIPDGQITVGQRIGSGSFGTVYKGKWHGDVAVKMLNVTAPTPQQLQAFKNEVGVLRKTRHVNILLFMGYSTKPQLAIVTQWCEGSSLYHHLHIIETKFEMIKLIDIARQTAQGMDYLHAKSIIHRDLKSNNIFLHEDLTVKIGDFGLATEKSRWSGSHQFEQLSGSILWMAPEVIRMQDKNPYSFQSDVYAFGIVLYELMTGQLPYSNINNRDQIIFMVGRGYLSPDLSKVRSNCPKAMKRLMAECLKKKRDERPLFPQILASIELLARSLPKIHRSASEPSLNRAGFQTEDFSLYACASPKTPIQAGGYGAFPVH
# AKT3 aa106-479 = target: T1, AKT3 aa106-479 (Homo sapiens, UniProt Q9Y243); test: ProQinase 33PanQinase selectivity profiling; assay type: biochemical; details: 100 nM, relative to control, read-out: Residual activity (%)
# T1 construct: AKT3 aa106-479; purchased ProQinase GmbH (Freiburg, Germany)
# T1 sequence (Q9Y243 106-479): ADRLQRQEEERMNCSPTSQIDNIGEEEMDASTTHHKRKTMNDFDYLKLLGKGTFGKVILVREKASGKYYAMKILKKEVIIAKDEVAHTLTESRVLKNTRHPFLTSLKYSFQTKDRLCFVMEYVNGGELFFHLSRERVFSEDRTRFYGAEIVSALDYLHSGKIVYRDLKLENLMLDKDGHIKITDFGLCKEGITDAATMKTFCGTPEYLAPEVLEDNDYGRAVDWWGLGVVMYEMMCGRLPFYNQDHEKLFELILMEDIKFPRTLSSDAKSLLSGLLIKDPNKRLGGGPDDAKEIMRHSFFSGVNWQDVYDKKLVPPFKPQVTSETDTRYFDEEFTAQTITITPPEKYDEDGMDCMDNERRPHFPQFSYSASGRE
# ACV-R2B = target: T2, ACV-R2B (Homo sapiens, UniProt Q13705); test: ProQinase 33PanQinase selectivity profiling; assay type: biochemical; details: 100 nM, relative to control, read-out: Residual activity (%)
# T2 construct: purchased ProQinase GmbH (Freiburg, Germany)
# COT = target: T3, COT (Homo sapiens, UniProt P41279); test: ProQinase 33PanQinase selectivity profiling; assay type: biochemical; details: 100 nM, relative to control, read-out: Residual activity (%)
# T3 construct: purchased ProQinase GmbH
# T3 sequence (P41279 whole entry): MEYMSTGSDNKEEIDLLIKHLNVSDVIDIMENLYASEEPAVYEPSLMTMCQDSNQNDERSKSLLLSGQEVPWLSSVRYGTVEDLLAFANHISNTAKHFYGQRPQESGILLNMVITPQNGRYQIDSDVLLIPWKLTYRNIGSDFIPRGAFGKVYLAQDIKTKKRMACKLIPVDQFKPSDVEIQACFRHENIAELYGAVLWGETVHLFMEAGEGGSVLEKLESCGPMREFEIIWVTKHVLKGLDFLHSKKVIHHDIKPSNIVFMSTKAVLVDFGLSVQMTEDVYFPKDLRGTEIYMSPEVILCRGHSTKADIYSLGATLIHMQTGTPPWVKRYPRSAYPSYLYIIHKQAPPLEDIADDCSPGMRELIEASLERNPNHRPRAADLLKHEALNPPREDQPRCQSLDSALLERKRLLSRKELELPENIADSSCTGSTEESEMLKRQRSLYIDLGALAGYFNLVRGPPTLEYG
# CLK2 = CLK2 (Homo sapiens, UniProt P49760); test: ProQinase 33PanQinase selectivity profiling; assay type: biochemical; details: 100 nM, relative to control, read-out: Residual activity (%)
# CK1-gamma1 = CK1-gamma1 (Homo sapiens, UniProt Q9HCP0); test: ProQinase 33PanQinase selectivity profiling; assay type: biochemical; details: 100 nM, relative to control
# Chain of CK1-gamma1 (Q9HCP0 whole entry): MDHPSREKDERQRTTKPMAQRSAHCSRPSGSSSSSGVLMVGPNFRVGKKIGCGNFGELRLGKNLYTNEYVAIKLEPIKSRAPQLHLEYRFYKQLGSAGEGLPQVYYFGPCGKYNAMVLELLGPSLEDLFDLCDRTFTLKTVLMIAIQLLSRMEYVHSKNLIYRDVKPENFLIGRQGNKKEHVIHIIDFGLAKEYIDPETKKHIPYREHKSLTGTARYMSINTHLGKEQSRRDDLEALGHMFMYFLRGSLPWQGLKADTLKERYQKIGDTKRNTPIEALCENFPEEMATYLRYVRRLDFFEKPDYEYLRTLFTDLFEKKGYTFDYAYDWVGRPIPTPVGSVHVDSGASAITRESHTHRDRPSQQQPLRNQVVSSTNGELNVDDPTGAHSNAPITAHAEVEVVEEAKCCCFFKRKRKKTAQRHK
# DMPK = DMPK (Homo sapiens, UniProt Q09013); test: ProQinase 33PanQinase selectivity profiling; assay type: biochemical; details: 100 nM, relative to control, read-out: Residual activity (%)
# CDK5/p35NCK = CDK5/p35NCK (Homo sapiens, UniProt Q00535); test: ProQinase 33PanQinase selectivity profiling; assay type: biochemical; details: 100 nM, relative to control, read-out: Residual activity (%)
# RIPK2 = RIPK2 (Homo sapiens, UniProt O43353); test: ProQinase 33PanQinase selectivity profiling; assay type: biochemical; details: 100 nM, relative to control, read-out: residual activity
# Chain of RIPK2 (O43353 whole entry): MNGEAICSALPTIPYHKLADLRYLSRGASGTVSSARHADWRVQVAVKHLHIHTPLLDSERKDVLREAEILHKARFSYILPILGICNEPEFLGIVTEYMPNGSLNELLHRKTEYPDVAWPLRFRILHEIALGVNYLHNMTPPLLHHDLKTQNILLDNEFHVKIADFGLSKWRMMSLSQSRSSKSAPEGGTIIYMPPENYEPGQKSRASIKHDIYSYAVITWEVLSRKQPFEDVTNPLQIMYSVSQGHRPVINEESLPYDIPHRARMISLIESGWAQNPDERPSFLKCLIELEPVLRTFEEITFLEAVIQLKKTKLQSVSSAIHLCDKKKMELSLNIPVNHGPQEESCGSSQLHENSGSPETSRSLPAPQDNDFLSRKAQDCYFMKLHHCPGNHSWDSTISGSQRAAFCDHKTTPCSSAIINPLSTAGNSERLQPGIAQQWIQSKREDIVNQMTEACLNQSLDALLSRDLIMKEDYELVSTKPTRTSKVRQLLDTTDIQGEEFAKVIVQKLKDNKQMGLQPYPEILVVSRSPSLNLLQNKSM
# CLK4 = CLK4 (Homo sapiens, UniProt Q9HAZ1); test: ProQinase 33PanQinase selectivity profiling; assay type: biochemical; details: 100 nM, relative to control, read-out: Residual activity (%)
# CDK6/CycD3 = CDK6/CycD3 (Homo sapiens, UniProt Q00534); test: ProQinase 33PanQinase selectivity profiling; assay type: biochemical; details: 100 nM, relative to control, read-out: Residual activity (%)
# CK1-gamma2 = CK1-gamma2 (Homo sapiens, UniProt P78368); test: ProQinase 33PanQinase selectivity profiling; assay type: biochemical; details: 100 nM, relative to control
# Chain of CK1-gamma2 (P78368 whole entry): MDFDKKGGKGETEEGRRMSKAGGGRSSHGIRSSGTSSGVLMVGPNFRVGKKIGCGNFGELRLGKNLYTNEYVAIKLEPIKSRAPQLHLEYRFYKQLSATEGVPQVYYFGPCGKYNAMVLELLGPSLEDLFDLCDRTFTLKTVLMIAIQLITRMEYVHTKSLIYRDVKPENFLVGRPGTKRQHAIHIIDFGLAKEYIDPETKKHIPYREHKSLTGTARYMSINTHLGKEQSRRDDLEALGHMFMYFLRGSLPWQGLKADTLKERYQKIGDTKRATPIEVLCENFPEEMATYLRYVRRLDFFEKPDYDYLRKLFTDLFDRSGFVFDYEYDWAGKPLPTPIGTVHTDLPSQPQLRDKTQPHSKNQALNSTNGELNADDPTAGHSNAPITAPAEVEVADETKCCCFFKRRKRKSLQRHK
# DYRK4 = DYRK4 (Homo sapiens, UniProt Q9NR20); test: biochemical; details: read-out: Residual activity (%)
# Chain of DYRK4 (Q9NR20 whole entry): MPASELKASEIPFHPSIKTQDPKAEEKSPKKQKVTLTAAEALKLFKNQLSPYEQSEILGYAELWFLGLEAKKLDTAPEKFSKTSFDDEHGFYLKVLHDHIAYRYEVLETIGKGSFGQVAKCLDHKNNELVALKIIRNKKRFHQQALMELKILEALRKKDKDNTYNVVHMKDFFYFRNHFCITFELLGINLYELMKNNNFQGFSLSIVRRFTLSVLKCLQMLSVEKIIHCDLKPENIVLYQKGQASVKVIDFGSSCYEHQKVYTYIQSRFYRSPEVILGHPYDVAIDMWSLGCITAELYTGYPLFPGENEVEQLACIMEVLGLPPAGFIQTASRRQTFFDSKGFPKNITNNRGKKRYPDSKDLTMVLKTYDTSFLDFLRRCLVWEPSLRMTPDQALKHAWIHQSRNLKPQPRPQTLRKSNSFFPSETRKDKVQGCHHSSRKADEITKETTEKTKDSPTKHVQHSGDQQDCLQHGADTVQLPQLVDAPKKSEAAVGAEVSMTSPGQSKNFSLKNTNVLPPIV
# DAPK2 = DAPK2 (Homo sapiens, UniProt Q9UIK4); test: ProQinase 33PanQinase selectivity profiling; assay type: biochemical; details: 100 nM, relative to control, read-out: Residual activity (%)
# CDK5/p25NCK = CDK5/p25NCK (Homo sapiens, UniProt Q00535); test: ProQinase 33PanQinase selectivity profiling; assay type: biochemical; details: 100 nM, relative to control, read-out: Residual activity (%)
# CK1-delta = CK1-delta (Homo sapiens, UniProt P48730); test: ProQinase 33PanQinase selectivity profiling; assay type: biochemical; details: 100 nM, relative to control, read-out: Residual activity (%)
# Chain of CK1-delta (P48730 whole entry, the tested form may be a part): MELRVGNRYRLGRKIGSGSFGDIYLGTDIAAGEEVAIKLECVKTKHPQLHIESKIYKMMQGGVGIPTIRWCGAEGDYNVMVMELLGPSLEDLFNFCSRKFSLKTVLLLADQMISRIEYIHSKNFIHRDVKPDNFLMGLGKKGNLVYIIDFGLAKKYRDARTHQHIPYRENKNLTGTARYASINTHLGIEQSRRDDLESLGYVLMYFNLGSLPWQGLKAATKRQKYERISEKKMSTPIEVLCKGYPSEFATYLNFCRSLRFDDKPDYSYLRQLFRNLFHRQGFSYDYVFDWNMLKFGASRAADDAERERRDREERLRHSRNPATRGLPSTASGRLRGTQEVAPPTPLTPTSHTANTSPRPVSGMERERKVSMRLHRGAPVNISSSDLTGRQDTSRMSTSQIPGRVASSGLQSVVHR
# AMPK-alpha1 aa1-550 = target: T4, AMPK-alpha1 aa1-550 (Homo sapiens, UniProt Q13131); test: ProQinase 33PanQinase selectivity profiling; assay type: biochemical; details: 100 nM, relative to control, read-out: Residual activity (%)
# T4 construct: AMPK-alpha1 aa1-550; purchased ProQinase GmbH (Freiburg, Germany)
# EPHA4 = target: T5, EPHA4 (Homo sapiens, UniProt P54764); test: ProQinase 33PanQinase selectivity profiling; assay type: biochemical; details: 100 nM, relative to control, read-out: Residual activity (%)
# T5 construct: purchased ProQinase GmbH
# EPHA5 = EPHA5 (Homo sapiens, UniProt P54756); test: ProQinase 33PanQinase selectivity profiling; assay type: biochemical; details: 100 nM, relative to control, read-out: Residual activity (%)
# CK1-alpha1 = CK1-alpha1 (Homo sapiens, UniProt P48729); test: ProQinase 33PanQinase selectivity profiling; assay type: biochemical; details: 100 nM, relative to control, read-out: Residual activity (%)
# Aurora-C = target: T6, Aurora-C (Homo sapiens, UniProt Q9UQB9); test: ProQinase 33PanQinase selectivity profiling; assay type: biochemical; details: 100 nM, relative to control, read-out: Residual activity (%)
# T6 construct: purchased ProQinase GmbH (Freiburg, Germany)
# DYRK1A = DYRK1A (Homo sapiens, UniProt Q13627); test: ProQinase 33PanQinase selectivity profiling; assay type: biochemical; details: 100 nM, relative to control, read-out: Residual activity (%)
# CDK7/CycH/MAT1 = CDK7/CycH/MAT1 (Homo sapiens, UniProt P50613); test: ProQinase 33PanQinase selectivity profiling; assay type: biochemical; details: 100 nM, relative to control, read-out: Residual activity (%)
# ACV-R1 = ACV-R1 (Homo sapiens, UniProt Q04771); test: ProQinase 33PanQinase selectivity profiling; assay type: biochemical; details: 100 nM, relative to control, read-out: Residual activity (%)
# Chain of ACV-R1 (Q04771 21-509): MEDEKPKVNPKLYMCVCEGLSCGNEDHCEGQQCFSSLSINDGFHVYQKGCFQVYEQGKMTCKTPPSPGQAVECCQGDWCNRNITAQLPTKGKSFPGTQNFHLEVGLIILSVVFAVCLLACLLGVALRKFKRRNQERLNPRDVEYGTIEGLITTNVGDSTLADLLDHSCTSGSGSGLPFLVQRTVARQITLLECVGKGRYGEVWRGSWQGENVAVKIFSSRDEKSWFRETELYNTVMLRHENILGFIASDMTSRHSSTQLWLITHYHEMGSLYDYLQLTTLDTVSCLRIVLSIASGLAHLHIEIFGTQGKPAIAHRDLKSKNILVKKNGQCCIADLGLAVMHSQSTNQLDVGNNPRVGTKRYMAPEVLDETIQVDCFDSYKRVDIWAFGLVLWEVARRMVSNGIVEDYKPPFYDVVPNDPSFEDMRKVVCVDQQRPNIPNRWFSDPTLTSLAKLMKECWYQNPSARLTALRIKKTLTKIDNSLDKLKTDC
# AKT2 aa107-481 = target: T7, AKT2 aa107-481 (Homo sapiens, UniProt P31751); test: ProQinase 33PanQinase selectivity profiling; assay type: biochemical; details: 100 nM, relative to control, read-out: Residual activity (%)
# T7 construct: AKT2 aa107-481; purchased ProQinase GmbH (Freiburg, Germany)
# T7 sequence (P31751 107-481): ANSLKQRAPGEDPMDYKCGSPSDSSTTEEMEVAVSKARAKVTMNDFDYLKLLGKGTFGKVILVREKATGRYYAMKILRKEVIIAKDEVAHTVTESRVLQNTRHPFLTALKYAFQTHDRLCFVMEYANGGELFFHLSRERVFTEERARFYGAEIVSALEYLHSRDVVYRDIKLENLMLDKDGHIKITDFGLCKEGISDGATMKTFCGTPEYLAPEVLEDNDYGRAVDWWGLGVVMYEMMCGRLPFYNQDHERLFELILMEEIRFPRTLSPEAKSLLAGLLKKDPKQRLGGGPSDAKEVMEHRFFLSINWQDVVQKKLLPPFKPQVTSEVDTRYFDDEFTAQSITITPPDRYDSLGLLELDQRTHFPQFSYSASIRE
# CK1-epsilon = CK1-epsilon (Homo sapiens, UniProt P49674); test: ProQinase 33PanQinase selectivity profiling; assay type: biochemical; details: 100 nM, relative to control, read-out: Residual activity (%)
# DAPK3 = DAPK3 (Homo sapiens, UniProt O43293); test: ProQinase 33PanQinase selectivity profiling; assay type: biochemical; details: 100 nM, relative to control, read-out: Residual activity (%)
# [1] = read-out: Residual activity (%)
structure (smiles),measurement,setting,value
"COc1ccc(OC)c(CCC(=O)Nc2cc(-c3nc(SC)[nH]c3-c3ccc(F)cc3)ccn2)c1 [11b, 3-(2,5-Dimethoxyphenyl)-N-(4-(5-(4-fluorophenyl)-2-(methylthio)-1H-imidazol-4-yl)-pyridin-2-yl)-propanamide]",remaining activity at 0.1 µM,CDK6/CycD1,105%
same,remaining activity at 0.1 µM,B-RAF V600E,102%
same,remaining activity at 0.1 µM,AKT3 aa106-479,83%
same,remaining activity at 0.1 µM,ACV-R2B,97%
same,remaining activity at 0.1 µM,COT,111%
same,remaining activity at 0.1 µM,CLK2,101%
same,Residual activity (%),CK1-gamma1,unaffected
same,remaining activity at 0.1 µM,CK1-gamma1; [1],100%
same,remaining activity at 0.1 µM,DMPK,103%
same,remaining activity at 0.1 µM,CDK5/p35NCK,85%
same,remaining activity at 0.1 µM,RIPK2,45%
same,remaining activity at 0.1 µM,CLK4,95%
same,remaining activity at 0.1 µM,CDK6/CycD3,97%
same,Residual activity (%),CK1-gamma2,unaffected
same,remaining activity at 0.1 µM,CK1-gamma2; [1],91%
same,remaining activity at 0.1 µM,DYRK4,100%
same,remaining activity at 0.1 µM,DAPK2,95%
same,remaining activity at 0.1 µM,CDK5/p25NCK,117%
same,remaining activity at 0.1 µM,CK1-delta,3%
same,remaining activity at 0.1 µM,AMPK-alpha1 aa1-550,96%
same,remaining activity at 0.1 µM,EPHA4,96%
same,remaining activity at 0.1 µM,EPHA5,97%
same,remaining activity at 0.1 µM,CK1-alpha1,26%
same,remaining activity at 0.1 µM,Aurora-C,93%
same,remaining activity at 0.1 µM,DYRK1A,96%
same,remaining activity at 0.1 µM,CDK7/CycH/MAT1,102%
same,remaining activity at 0.1 µM,ACV-R1,95%
same,remaining activity at 0.1 µM,AKT2 aa107-481,97%
same,remaining activity at 0.1 µM,CK1-epsilon,7%
same,remaining activity at 0.1 µM,DAPK3,85%
